{"source": "ChEMBL document CHEMBL1201862", "about": "“PubChem BioAssay data set” (2004)", "assay_in_all_cases": "growth of human tumour cells (NCI), 48 h", "key": {"786-0": {"tested_on": "786-0"}, "A498": {"tested_on": "A498"}, "A549": {"tested_on": "A549"}, "ACHN": {"tested_on": "ACHN"}, "CAKI-1": {"tested_on": "CAKI-1"}, "CCRF-CEM": {"tested_on": "CCRF-CEM"}, "COLO 205": {"tested_on": "COLO 205"}, "DLD-1": {"tested_on": "DLD-1"}, "DMS-114": {"tested_on": "DMS-114"}, "DMS-273": {"tested_on": "DMS-273"}, "EKVX": {"tested_on": "EKVX"}, "HCC 2998": {"tested_on": "HCC 2998"}, "HCT-116": {"tested_on": "HCT-116"}, "HCT-15": {"tested_on": "HCT-15"}, "HL-60": {"tested_on": "HL-60"}, "HOP-18": {"tested_on": "HOP-18"}, "HOP-62": {"tested_on": "HOP-62"}, "HOP-92": {"tested_on": "HOP-92"}, "HT-29": {"tested_on": "HT-29"}, "IGROV-1": {"tested_on": "IGROV-1"}, "K562": {"tested_on": "K562"}, "KM-20L2": {"tested_on": "KM-20L2"}, "KM12": {"tested_on": "KM12"}, "LOX IMVI": {"tested_on": "LOX IMVI"}, "LXFL 529": {"tested_on": "LXFL 529"}, "M14": {"tested_on": "M14"}, "M19-MEL": {"tested_on": "M19-MEL"}, "MOLT-4": {"tested_on": "MOLT-4"}, "Malme-3M": {"tested_on": "Malme-3M"}, "NCI-H226": {"tested_on": "NCI-H226"}, "NCI-H23": {"tested_on": "NCI-H23"}, "NCI-H460": {"tested_on": "NCI-H460"}, "NCI-H522": {"tested_on": "NCI-H522"}, "OVCAR-3": {"tested_on": "OVCAR-3"}, "OVCAR-4": {"tested_on": "OVCAR-4"}, "OVCAR-5": {"tested_on": "OVCAR-5"}, "OVCAR-8": {"tested_on": "OVCAR-8"}, "RPMI-8226": {"tested_on": "RPMI-8226"}, "RXF 393": {"tested_on": "RXF 393"}, "RXF 631": {"tested_on": "RXF 631"}, "SF-268": {"tested_on": "SF-268"}, "SF-295": {"tested_on": "SF-295"}, "SF-539": {"tested_on": "SF-539"}, "SK-MEL-28": {"tested_on": "SK-MEL-28"}, "SK-MEL-2": {"tested_on": "SK-MEL-2"}, "SK-MEL-5": {"tested_on": "SK-MEL-5"}, "SK-OV-3": {"tested_on": "SK-OV-3"}, "SN12C": {"tested_on": "SN12C"}, "SNB-19": {"tested_on": "SNB-19"}, "SNB-75": {"tested_on": "SNB-75"}, "SNB-78": {"tested_on": "SNB-78"}, "SR": {"tested_on": "SR"}, "SW-620": {"tested_on": "SW-620"}, "TK-10": {"tested_on": "TK-10"}, "U-251": {"tested_on": "U-251"}, "UACC-257": {"tested_on": "UACC-257"}, "UACC-62": {"tested_on": "UACC-62"}, "UO-31": {"tested_on": "UO-31"}, "XF498": {"tested_on": "XF498"}}, "note": "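Dose response: 5 concentrations. Exposure: 48 h. Format: 96-well plates. Endpoint: linear interpolation; highest concentration if not reached. Abbreviation: GI50, concentration required for 50% inhibition of growth.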 The source made the active and inactive calls. Rule as the data show it: active = GI50 up to about 1.1 µM and inactive = higher.", "data": [{"smiles": "COC(=O)/C=C/c1c(CC=C(C)C)ncn1C", "values": [{"measurement": "GI50", "setting": "786-0", "value": "38.5 µM (inactive)"}, {"measurement": "GI50", "setting": "A498", "value": "> 84.1 µM (inactive)"}, {"measurement": "GI50", "setting": "A549", "value": "70.3 µM (inactive)"}, {"measurement": "GI50", "setting": "ACHN", "value": "> 76.7 µM (inactive)"}, {"measurement": "GI50", "setting": "CAKI-1", "value": "> 68.1 µM (inactive)"}, {"measurement": "GI50", "setting": "CCRF-CEM", "value": "> 41.3 µM (inactive)"}, {"measurement": "GI50", "setting": "COLO 205", "value": "20.9 µM (inactive)"}, {"measurement": "GI50", "setting": "DLD-1", "value": "29.8 µM (inactive)"}, {"measurement": "GI50", "setting": "DMS-114", "value": "5.38 µM (inactive)"}, {"measurement": "GI50", "setting": "DMS-273", "value": "8.38 µM (inactive)"}, {"measurement": "GI50", "setting": "EKVX", "value": "> 57.1 µM (inactive)"}, {"measurement": "GI50", "setting": "HCC 2998", "value": "54.6 µM (inactive)"}, {"measurement": "GI50", "setting": "HCT-116", "value": "24.3 µM (inactive)"}, {"measurement": "GI50", "setting": "HCT-15", "value": 7.85, "unit": "µM"}, {"measurement": "GI50", "setting": "HL-60", "value": "4.21 µM (inactive)"}, {"measurement": "GI50", "setting": "HOP-18", "value": "> 100 µM (inactive)"}, {"measurement": "GI50", "setting": "HOP-62", "value": "42 µM (inactive)"}, {"measurement": "GI50", "setting": "HOP-92", "value": "78.7 µM (inactive)"}, {"measurement": "GI50", "setting": "HT-29", "value": "14.4 µM (inactive)"}, {"measurement": "GI50", "setting": "IGROV-1", "value": "> 100 µM (inactive)"}, {"measurement": "GI50", "setting": "K562", "value": "4.63 µM (inactive)"}, {"measurement": "GI50", "setting": "KM-20L2", "value": "16.7 µM (inactive)"}, {"measurement": "GI50", "setting": "KM12", "value": "11 µM (inactive)"}, {"measurement": "GI50", "setting": "LOX IMVI", "value": "35.7 µM (inactive)"}, {"measurement": "GI50", "setting": "LXFL 529", "value": "55.1 µM (inactive)"}, {"measurement": "GI50", "setting": "M14", "value": "16.4 µM (inactive)"}, {"measurement": "GI50", "setting": "M19-MEL", "value": "18.8 µM (inactive)"}, {"measurement": "GI50", "setting": "MOLT-4", "value": "5.31 µM (inactive)"}, {"measurement": "GI50", "setting": "Malme-3M", "value": "> 100 µM (inactive)"}, {"measurement": "GI50", "setting": "NCI-H226", "value": "> 38.5 µM (inactive)"}, {"measurement": "GI50", "setting": "NCI-H23", "value": "37.7 µM (inactive)"}, {"measurement": "GI50", "setting": "NCI-H460", "value": "40.2 µM (inactive)"}, {"measurement": "GI50", "setting": "NCI-H522", "value": "25.3 µM (inactive)"}, {"measurement": "GI50", "setting": "OVCAR-3", "value": "16.9 µM (inactive)"}, {"measurement": "GI50", "setting": "OVCAR-4", "value": "84.9 µM (inactive)"}, {"measurement": "GI50", "setting": "OVCAR-5", "value": "> 100 µM (inactive)"}, {"measurement": "GI50", "setting": "OVCAR-8", "value": "40.2 µM (inactive)"}, {"measurement": "GI50", "setting": "RPMI-8226", "value": "20.6 µM (inactive)"}, {"measurement": "GI50", "setting": "RXF 393", "value": "22.5 µM (inactive)"}, {"measurement": "GI50", "setting": "RXF 631", "value": "59 µM (inactive)"}, {"measurement": "GI50", "setting": "SF-268", "value": "> 66.7 µM (inactive)"}, {"measurement": "GI50", "setting": "SF-295", "value": "24.4 µM (inactive)"}, {"measurement": "GI50", "setting": "SF-539", "value": "17.8 µM (inactive)"}, {"measurement": "GI50", "setting": "SK-MEL-28", "value": "> 49.5 µM (inactive)"}, {"measurement": "GI50", "setting": "SK-MEL-2", "value": "19.6 µM (inactive)"}, {"measurement": "GI50", "setting": "SK-MEL-5", "value": "22.1 µM (inactive)"}, {"measurement": "GI50", "setting": "SK-OV-3", "value": "47.9 µM (inactive)"}, {"measurement": "GI50", "setting": "SN12C", "value": "88.5 µM (inactive)"}, {"measurement": "GI50", "setting": "SNB-19", "value": "26.1 µM (inactive)"}, {"measurement": "GI50", "setting": "SNB-75", "value": "11.1 µM (inactive)"}, {"measurement": "GI50", "setting": "SNB-78", "value": "53.2 µM (inactive)"}, {"measurement": "GI50", "setting": "SR", "value": "4.29 µM (inactive)"}, {"measurement": "GI50", "setting": "SW-620", "value": "6.79 µM (inactive)"}, {"measurement": "GI50", "setting": "TK-10", "value": "55.7 µM (inactive)"}, {"measurement": "GI50", "setting": "U-251", "value": "19.1 µM (inactive)"}, {"measurement": "GI50", "setting": "UACC-257", "value": "61.7 µM (inactive)"}, {"measurement": "GI50", "setting": "UACC-62", "value": "16.6 µM (inactive)"}, {"measurement": "GI50", "setting": "UO-31", "value": "28.2 µM (inactive)"}, {"measurement": "GI50", "setting": "XF498", "value": "41.3 µM (inactive)"}]}]}
